Earlier results as cited in patent US20180125835A1, “Dosage and Use of an A2A Antagonist” (H. Lundbeck A/S, priority 2014, published 2018).

Details: in vivo; cited from earlier work

Cc1ccc(-c2nc(N)nc3c2nnn3Cc2cccc(CO[C@H]3CCOC3)n2)o1 [Compound V-81444]
half-life: 5 to 7 h
